# Calls of active or inactive are those of the source. The calls are words filed in the database; no cut-off is given here.
# Experiments:
# [1] = molecular target: T1, Peroxisome proliferator-activated receptor delta (Homo sapiens) (UniProt Q03181); test: Agonist activity at GAL4-DBD fused human PPARbeta/delta-LBD (136 to 441 residues) expressed in human HepG2 cells at 10 uM by luciferase reporter gene based mammalian one hybrid assay; assay type: cell-based
# T1 sequence (whole entry): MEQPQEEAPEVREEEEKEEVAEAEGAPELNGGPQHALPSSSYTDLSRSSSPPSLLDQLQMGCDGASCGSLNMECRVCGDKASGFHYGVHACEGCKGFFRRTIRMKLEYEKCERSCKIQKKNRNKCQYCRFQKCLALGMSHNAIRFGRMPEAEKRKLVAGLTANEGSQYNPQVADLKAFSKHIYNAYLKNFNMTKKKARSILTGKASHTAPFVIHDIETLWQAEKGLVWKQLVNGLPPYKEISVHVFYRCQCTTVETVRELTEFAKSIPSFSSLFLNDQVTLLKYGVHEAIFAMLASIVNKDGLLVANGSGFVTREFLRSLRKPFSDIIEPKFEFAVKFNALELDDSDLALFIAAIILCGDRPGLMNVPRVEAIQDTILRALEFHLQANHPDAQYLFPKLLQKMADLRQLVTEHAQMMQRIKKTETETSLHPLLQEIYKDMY
# HepG2 [2] = test: Induction of PPRE transcriptional activation in human HepG2 cells at 10 uM incubated for 24 hrs by dual luciferase reporter gene assay; assay type: functional, cell-based
# HepG2 [3] = test: Upregulation of ANGPTL4 mRNA expression in human HepG2 cells transfected with PPARbeta/delta siRNA at 10 uM after 24 hrs by qRT-PCR method; assay type: functional, cell-based
# [4] = molecular target: T1, Peroxisome proliferator-activated receptor delta (Homo sapiens); test: Agonist activity at PPARbeta/delta in human HepG2 cells assessed as induction of ANGPTL4 mRNA expression incubated for 24 hrs by qRT-PCR method; assay type: cell-based
# [5] = molecular target: T1, Peroxisome proliferator-activated receptor delta (Homo sapiens); test: Agonist activity at full length human N-terminal Myc-tagged PPARbeta/delta expressed in human HepG2 cells coexpressing RXRalpha assessed as transcriptional activation of PPRE incubated for 24 hrs by dual luciferase reporter gene assay; assay type: cell-based
# [6] = molecular target: T1, Peroxisome proliferator-activated receptor delta (Homo sapiens); test: Agonist activity PPARbeta/delta in human MCF7 cells assessed as induction of ANGPTL4 mRNA expression at 10 uM incubated for 24 hrs by qRT-PCR method; assay type: cell-based
# [7] = molecular target: T1, Peroxisome proliferator-activated receptor delta (Homo sapiens); test: Agonist activity at GAL4-DBD fused human PPARbeta/delta-LBD (136 to 441 residues) expressed in human HepG2 cells after 24 hrs by dual luciferase reporter gene assay; assay type: cell-based
# [8] = molecular target: T2, Peroxisome proliferator-activated receptor gamma (Homo sapiens) (UniProt P37231); test: Agonist activity at GAL4-DBD fused human PPARgamma-LBD (157 to 475 residues) expressed in human HepG2 cells at 0.1 to 20 uM after 24 hrs by dual luciferase reporter gene assay; assay type: cell-based
# T2 sequence (whole entry): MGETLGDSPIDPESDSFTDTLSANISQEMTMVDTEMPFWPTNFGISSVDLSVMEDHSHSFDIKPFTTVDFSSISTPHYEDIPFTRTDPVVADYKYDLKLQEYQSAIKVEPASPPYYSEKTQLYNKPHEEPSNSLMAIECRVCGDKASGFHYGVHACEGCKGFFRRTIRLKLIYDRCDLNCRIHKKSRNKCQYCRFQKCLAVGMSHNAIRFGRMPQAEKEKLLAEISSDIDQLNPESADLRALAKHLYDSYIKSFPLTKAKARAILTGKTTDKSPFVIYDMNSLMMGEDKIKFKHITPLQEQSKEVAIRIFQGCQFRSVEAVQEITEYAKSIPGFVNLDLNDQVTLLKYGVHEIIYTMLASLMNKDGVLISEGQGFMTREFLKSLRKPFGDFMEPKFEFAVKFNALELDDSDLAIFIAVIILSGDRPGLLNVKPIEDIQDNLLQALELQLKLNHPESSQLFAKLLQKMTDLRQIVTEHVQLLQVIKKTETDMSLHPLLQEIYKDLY
# [9] = molecular target: T1, Peroxisome proliferator-activated receptor delta (Homo sapiens); test: Agonist activity PPARbeta/delta in human PC3 cells assessed as induction of ANGPTL4 mRNA expression at 10 uM incubated for 24 hrs by qRT-PCR method; assay type: cell-based
# [10] = molecular target: T3, Peroxisome proliferator-activated receptor alpha (Homo sapiens) (UniProt Q07869); test: Agonist activity at GAL4-DBD fused human PPARalpha-LBD (159 to 468 residues) expressed in human HepG2 cells at 0.1 to 20 uM after 24 hrs by dual luciferase reporter gene assay; assay type: cell-based
# T3 sequence (whole entry): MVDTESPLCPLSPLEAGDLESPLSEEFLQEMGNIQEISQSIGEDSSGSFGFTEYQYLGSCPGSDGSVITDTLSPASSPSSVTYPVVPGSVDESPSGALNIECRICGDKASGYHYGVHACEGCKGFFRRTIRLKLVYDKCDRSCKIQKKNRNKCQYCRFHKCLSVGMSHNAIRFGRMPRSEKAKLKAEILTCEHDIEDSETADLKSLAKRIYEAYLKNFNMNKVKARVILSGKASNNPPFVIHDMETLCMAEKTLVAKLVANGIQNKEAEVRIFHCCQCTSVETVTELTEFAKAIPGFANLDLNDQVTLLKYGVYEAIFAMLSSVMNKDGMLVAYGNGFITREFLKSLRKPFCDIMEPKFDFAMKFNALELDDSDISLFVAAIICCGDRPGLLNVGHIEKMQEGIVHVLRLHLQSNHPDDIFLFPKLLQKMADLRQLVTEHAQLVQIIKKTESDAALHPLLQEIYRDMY
smiles,measurement,setting,value
CCCCn1ccc2c3n(c(=O)c(=O)cc1-3)c1ccccc21,Activity,[1],inactive
COc1cccc2c1[nH]c1c(CCn3ccc4c5n(c(=O)c(=O)cc3-5)c3ccccc43)ncc(OC)c12,Activity,[1],inactive
Cc1cc(SCc2sc(-c3ccc(C(F)(F)F)c(F)c3)nc2C)ccc1OCC(=O)O,Activity,HepG2 [2],Active
same,Activity,HepG2 [3],inactive
COc1cnc(CCn2ccc3c4n(c(=O)c(=O)cc2-4)c2ccccc32)c2c1c1ccccc1n2OC,Activity,[4],Dose-dependent effect
same,Activity,HepG2 [2],Active
same,Activity,[5],Dose-dependent effect
same,Activity,[6],Active
same,Activity,[7],Dose-dependent effect
same,Activity,[8],Active
same,Activity,HepG2 [3],inactive
same,Activity,[9],inactive
same,Activity,[10],inactive
